# In patent publication US11414395B2, “Heterocyclic compounds as modulators of mGluR7” (PRAGMA Therapeutics, priority 2017, dated 2022):
# Target: human mGluR7 (Homo sapiens (Human), UniProt Q14831)
# Assay: Inositol monophosphate production assay (IP1 assay), inhibition of L-AP4 response
# Format: cell-based
# Conditions: mean IC50 from at least two independent experiments; HEK293 cells transiently transfected with mGluR7, Gqtop and EAAC1; IP1 production vs EC80 L-AP4
# Method in brief: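 HEK293 cells transiently co-expressing mGluR7, chimeric Gq/Gi (Gqtop) and EAAC1, switched to Glutamax medium 3 h before stimulation. IP1 measured by competitive HTRF; inhibition of an EC80-equivalent L-AP4 response, triplicate points, four-parameter fit to log IC50, mean of ≥2 experiments.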
# human mGluR7, sequence (Q14831 35-915): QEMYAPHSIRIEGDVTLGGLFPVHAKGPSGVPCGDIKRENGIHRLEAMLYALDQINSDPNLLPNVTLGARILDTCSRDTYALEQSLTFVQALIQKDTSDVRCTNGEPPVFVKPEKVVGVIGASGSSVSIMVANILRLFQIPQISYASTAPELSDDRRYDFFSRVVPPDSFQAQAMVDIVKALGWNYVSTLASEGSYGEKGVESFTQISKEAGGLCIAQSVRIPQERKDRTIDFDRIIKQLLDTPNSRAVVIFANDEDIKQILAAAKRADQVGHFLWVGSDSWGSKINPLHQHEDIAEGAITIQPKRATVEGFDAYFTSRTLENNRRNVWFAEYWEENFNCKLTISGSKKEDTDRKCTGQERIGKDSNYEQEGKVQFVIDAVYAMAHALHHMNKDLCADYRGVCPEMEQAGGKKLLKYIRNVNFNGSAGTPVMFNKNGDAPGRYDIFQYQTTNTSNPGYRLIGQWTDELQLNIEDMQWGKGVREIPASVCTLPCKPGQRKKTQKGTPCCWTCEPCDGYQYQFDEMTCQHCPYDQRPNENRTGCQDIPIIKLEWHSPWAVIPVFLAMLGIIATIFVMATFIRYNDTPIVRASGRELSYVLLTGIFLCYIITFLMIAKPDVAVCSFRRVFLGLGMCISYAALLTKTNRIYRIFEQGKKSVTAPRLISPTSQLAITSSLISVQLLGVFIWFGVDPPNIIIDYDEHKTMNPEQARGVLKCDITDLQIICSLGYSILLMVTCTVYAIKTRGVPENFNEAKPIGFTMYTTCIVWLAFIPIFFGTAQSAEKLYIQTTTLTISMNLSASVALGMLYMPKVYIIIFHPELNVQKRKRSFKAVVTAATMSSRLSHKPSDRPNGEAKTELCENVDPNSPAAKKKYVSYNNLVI
row,SMILES,IC50 [nM]
1,"COc1cnc(-n2ncc3c(c2=O)CCC(c2cc(OC)ccc2C)C3)nc1 (stereo not shown) [Example 48, 6-(5-methoxy-2-methylphenyl)-2-(5-methoxypyrimidin-2-yl)-5,6,7,8-tetrahydrophthalazin-1(2H)-one]",500 to 1000
2,"O=c1c2c(cnn1-c1ncccn1)CC(c1cccc(OC3CC3)c1Cl)CC2 (single isomer, unassigned; (+)) [Example 131, (+)-6-(2-chloro-3-cyclopropoxyphenyl)-2-(pyrimidin-2-yl)-5,6,7,8-tetrahydrophthalazin-1(2H)-one]",< 500
3,"COc1ccc(C)c(C2CCc3c(cnn(-c4ncccn4)c3=O)C2)c1 (stereo not shown) [Example 80, 6-(5-methoxy-2-methylphenyl)-2-(pyrimidin-2-yl)-5,6,7,8-tetrahydrophthalazin-1(2H)-one]",< 500
4,"Cc1ccc2c(cnn2C)c1C1CCc2c(cnn(-c3ncccn3)c2=O)C1 (stereo not shown) [Example 88, 6-(1,5-dimethyl-1H-indazol-4-yl)-2-(pyrimidin-2-yl)-5,6,7,8-tetrahydrophthalazin-1(2H)-one]",1000 to 30000
5,"COc1cccc(C2CCc3c(cnn(-c4ncccn4)c3=O)C2)c1F (stereo not shown) [Example 79, 6-(2-fluoro-3-methoxyphenyl)-2-(pyrimidin-2-yl)-5,6,7,8-tetrahydrophthalazin-1(2H)-one]",< 500
6,"COc1cccc(C2CCc3c(cnn(-c4ncc(N5CCOCC5)cn4)c3=O)C2)c1C (stereo not shown) [Example 112, 6-(3-methoxy-2-methylphenyl)-2-(5-morpholinopyrimidin-2-yl)-5,6,7,8-tetrahydrophthalazin-1(2H)-one]",< 500
7,"COc1cccc(C2CCc3c(cnn(-c4ncccn4)c3=O)C2)c1Cl (stereo not shown) [Example 72, 6-(2-chloro-3-methoxyphenyl)-2-(pyrimidin-2-yl)-5,6,7,8-tetrahydrophthalazin-1(2H)-one]",< 500
8,"O=c1c2c(cnn1-c1ncccn1)CC(c1cccc(OC3CCCC3)c1)CC2 (stereo not shown) [Example 86, 6-(3-(cyclopentyloxy)phenyl)-2-(pyrimidin-2-yl)-5,6,7,8-tetrahydrophthalazin-1(2H)-one]",500 to 1000
9,"O=c1c2c(cnn1-c1ncccn1)CC(c1cccc3c1CCN3C1CC1)CC2 (stereo not shown) [Example 92, 6-(1-cyclopropylindolin-4-yl)-2-(pyrimidin-2-yl)-5,6,7,8-tetrahydrophthalazin-1(2H)-one]",< 500
10,"Cc1c(OC2CC2)cccc1C1CCc2c(cnn(-c3ncccn3)c2=O)C1 (single isomer, unassigned; (-)) [Example 128, (−)-6-(3-cyclopropoxy-2-methylphenyl)-2-(pyrimidin-2-yl)-5,6,7,8-tetrahydrophthalazin-1(2H)-one]",< 500
11,"O=c1c2c(cnn1-c1ncccn1)CC(c1cccc3c1ccn3C1CC1)CC2 (stereo not shown) [Example 124, 6-(1-cyclopropyl-1H-indol-4-yl)-2-(pyrimidin-2-yl)-5,6,7,8-tetrahydrophthalazin-1(2H)-one]",< 500

# The remaining lines, values ahead:
row,IC50 [nM],SMILES
1,1000 to 30000,"CC(=O)Nc1cnc(-n2ncc3c(c2=O)CCC(c2ccc(C)cc2C)C3)nc1 (single isomer, unassigned; (-)) [Example 136, (−)-N-(2-(6-(2,4-dimethylphenyl)-1-oxo-5,6,7,8-tetrahydrophthalazin-2(1H)-yl)pyrimidin-5-yl)acetamide]"
2,< 500,"Cc1ccc(C2CCc3c(cnn(-c4ccc(Cl)cn4)c3=O)C2)c(C)c1 (stereo not shown) [Example 6, 6-(2,4-dimethylphenyl)-2-(5-chlororopyridin-2-yl)-5,6,7,8-tetrahydro-phthalazin-1(2H)-one]"
3,< 500,"CC(=O)Nc1cnc(-n2ncc3c(c2=O)CCC(c2ccc(C)cc2C)C3)nc1 (single isomer, unassigned; (+)) [Example 137, (+)-N-(2-(6-(2,4-dimethylphenyl)-1-oxo-5,6,7,8-tetrahydrophthalazin-2(1H)-yl)pyrimidin-5-yl)acetamide]"
4,< 500,"Cc1ccc(C2CCc3c(cnn(-c4cccc(F)n4)c3=O)C2)c(C)c1 (stereo not shown) [Example 9, 6-(2,4-dimethylphenyl)-2-(6-fluoropyridin-2-yl)-5,6,7,8-tetrahydrophthalazin-1(2H)-one]"
5,< 500,"COc1ccc(-n2ncc3c(c2=O)CCC(c2ccc(C)cc2C)C3)nc1 (stereo not shown) [Example 14, 6-(2,4-dimethylphenyl)-2-(5-methoxypyridin-2-yl)-5,6,7,8-tetrahydrophthalazin-1(2H)-one]"
6,< 500,"Cc1ccc(C2CCc3c(cnn(-c4ncccc4F)c3=O)C2)c(C)c1 (stereo not shown) [Example 12, 6-(2,4-dimethylphenyl)-2-(3-fluoropyridin-2-yl)-5,6,7,8-tetrahydrophthalazin-1(2H)-one]"
7,< 500,"COc1ccnc(-n2ncc3c(c2=O)CCC(c2ccc(C)cc2C)C3)c1 (stereo not shown) [Example 15, 6-(2,4-dimethylphenyl)-2-(4-methoxypyridin-2-yl)-5,6,7,8-tetrahydrophthalazin-1(2H)-one]"
8,500 to 1000,"COc1c(C)cccc1C1CCc2c(cnn(-c3ccccn3)c2=O)C1 (stereo not shown) [Example 68, 6-(2-methoxy-3-methylphenyl)-2-(pyridin-2-yl)-5,6,7,8-tetrahydrophthalazin-1(2H)-one]"
9,< 500,"COc1nc(-n2ncc3c(c2=O)CCC(c2ccc(C)cc2C)C3)ncc1C (stereo not shown) [Example 56, 6-(2,4-dimethylphenyl)-2-(4-methoxy-5-methylpyrimidin-2-yl)-5,6,7,8-tetrahydrophthalazin-1(2H)-one]"
10,< 500,"Cc1ccc(C2CCc3c(cnn(-c4ccc(O)cn4)c3=O)C2)c(C)c1 (stereo not shown) [Example 25, 6-(2,4-dimethylphenyl)-2-(5-hydroxypyridin-2-yl)-5,6,7,8-tetrahydrophthalazin-1(2H)-one]"
11,< 500,"Cc1ccc(C2CCc3c(cnn(-c4ncccn4)c3=O)C2)c(C)c1 (stereo not shown) [Example 29, 6-(2,4-dimethylphenyl)-2-(pyrimidin-2-yl)-5,6,7,8-tetrahydrophthalazin-1(2H)-one]"
12,< 500,"Cc1ccc(C2CCc3c(cnn(-c4ccc(F)cn4)c3=O)C2)c(C)c1 (stereo not shown) [Example 10, 6-(2,4-dimethylphenyl)-2-(5-fluoropyridin-2-yl)-5,6,7,8-tetrahydrophthalazin-1(2H)-one]"
13,1000 to 30000,"Cc1ccc(C2Cc3cnn(-c4ccccn4)c(=O)c3C2)c(C)c1 (stereo not shown) [Example 121, 6-(2,4-dimethylphenyl)-2-(pyridin-2-yl)-2,5,6,7-tetrahydro-1H-cyclopenta[d]-pyridazin-1-one]"
14,< 500,"Cc1ccc(C2CCc3c(cnn(-c4ccc(C5CC5)cn4)c3=O)C2)c(C)c1 (stereo not shown) [Example 108, 2-(5-cyclopropylpyridin-2-yl)-6-(2,4-dimethylphenyl)-5,6,7,8-tetrahydrophthalazin-1(2H)-one]"
15,< 500,"Cc1ccc(C2CCc3c(cnn(-c4ncc(CN5CCOCC5)cn4)c3=O)C2)c(C)c1 (stereo not shown) [Example 57, 6-(2,4-dimethylphenyl)-2-(5-(morpholinomethyl)pyrimidin-2-yl)-5,6,7,8-tetrahydrophthalazin-1(2H)-one]"
16,< 500,"Cc1ccc(C2CCc3c(cnn(-c4ccccn4)c3=O)C2)c(C)c1 (single isomer, unassigned; (+)) [Example 5, (+)-6-(2,4-dimethyl-phenyl)-2-pyridin-2-yl-5,6,7,8-tetrahydro-2H-phthalazin-1-one]"
17,< 500,"Cc1ccc(C2CCc3c(cnn(-c4ncccc4C#N)c3=O)C2)c(C)c1 (stereo not shown) [Example 24, 2-(6-(2,4-dimethylphenyl)-1-oxo-5,6,7,8-tetrahydrophthalazin-2(1H)-yl)nicotinonitrile]"
